Consider one compound from PMC8125337 (International Journal of Molecular Sciences, 2021).

The Kd is the concentration at which binding is half-saturated. Lower therefore signals higher affinity.

The target in this test is T1, TRPV1 (vanilloid receptor).
T1 construct: native receptor in hemocytes
The test is described as follows: radioligand saturation binding, rapid filtration. Format: cell-based, Mytilus galloprovincialis.

Compound `C=C(C)[C@]12C[C@@H](C)[C@@]34O[C@](Cc5ccccc5)(O[C@@H]1[C@@H]3C=C(COC(=O)Cc1ccc(O)c(OC)c1)C[C@]1(O)C(=O)C(C)=C[C@@H]41)O2` [resiniferatoxin] registered a Kd of 0.413 ± 0.168 nM.
